From EPA's ToxValDB 9.5 (doi:10.2903/j.efsa.2019.5842)
Values after ≈ are worked out from the molar mass of the structure shown.

Experiments:
[1] = system: Oncorhynchus mykiss; experiment: LC10; higher = less toxic; conditions: chronic/long-term; mortality
[2] = system: Oryctolagus sp.; conditions: reproduction developmental; body weight
[3] = system: Tagia sp.; conditions: chronic/long-term; duration: 56 days; reproduction
[4] = system: Folsomia candida; conditions: chronic/long-term; duration: 28 days; reproduction
[5] = system: Oncorhynchus mykiss; conditions: acute; duration: 96 hours; mortality
[6] = system: Hyalella azteca; conditions: chronic/long-term; duration: 42 days
[7] = system: Apis mellifera; conditions: acute, mortality
[8] = system: Daphnia magna; conditions: chronic/long-term; duration: 21 days; reproduction
[9] = system: Colinus virginianus
[10] = system: Rattus norvegicus

CCCCN(CC)c1c([N+](=O)[O-])cc(C(F)(F)F)cc1[N+](=O)[O-] [Benfluralin]
LC10 [1]: 0.0013 µg/mL (≈ 0.00388 µM) | NOAEL [2]: 50 mg/kg-day | NOEC [3]: 15.4 mg/kg | NOEC [4]: 5.5 mg/kg | LC50 [5]: 0.081 µg/mL (≈ 0.242 µM) | NOEC [6]: 83 mg/kg | LD50 ([7]; dermal): > 100 µg/piece | LD50 ([7]; oral, unspecified): > 111 µg/piece | NOEC [8]: 0.046 mg/L | LD50 ([9]; acute, oral, mortality): > 2000 mg/kg-day | NOEL ([9]; reproduction developmental): 6.7 mg/kg-day | LD50 ([10]; acute, oral, mortality): > 5000 mg/kg-day | NOAEL ([10]; chronic, duration: 2 years, histopathology: nonneoplastic): 0.5 mg/kg-day | NOAEL ([10]; reproduction developmental, body weight): 5.5 mg/kg-day
